From patent US20060008880A1, “Mouse trace amine associated receptors and polypeptides” (priority 2004, published 2006) come the findings set out here.

Broadly, the EC50 is the midpoint of the concentration-response curve.

Sequence of Mouse TAAR 1 (Q923Y8 whole entry): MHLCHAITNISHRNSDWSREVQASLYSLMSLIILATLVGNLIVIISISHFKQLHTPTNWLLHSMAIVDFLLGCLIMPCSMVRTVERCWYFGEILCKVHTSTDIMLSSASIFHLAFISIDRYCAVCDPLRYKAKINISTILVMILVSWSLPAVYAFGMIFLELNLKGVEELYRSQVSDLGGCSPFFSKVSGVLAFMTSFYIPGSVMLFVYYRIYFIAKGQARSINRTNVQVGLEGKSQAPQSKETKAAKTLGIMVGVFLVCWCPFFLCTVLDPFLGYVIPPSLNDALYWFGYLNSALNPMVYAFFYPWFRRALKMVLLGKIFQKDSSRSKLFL

One experiment concerns the target Mouse TAAR 1 (Mus musculus, UniProt Q923Y8). Kind of experiment: cAMP Biotrak EIA functional assay in HEK293 cells stably expressing mTAAR1. The experiment is classed as cell-based.
Details: not given
The source says: Stable cell lines: For the generation of stably transfected cell lines HEK cells were transfected with the pIRES-NEO2 expression vectors of the respective TAARs by using Lipofectamin 2000 transfection reagent and Optimem 1 reduced serum medium with Glutamax (Invitrogen Cat. # 51985-026) following the recommendations given in the Lipofectamine 2000 datasheet. After 24 hr post transfection cells were trypsinated and transferred into 90 mm tissue culture dishes (Nunc) at dilutions between 1:10-1:300 in culture medium supplemented with 1 mg/ml G418 which was renewed on a daily basis. […] Picking of clones was performed by detaching the entire clone from the culture dish using a 1 ml Gilson pipette, trypsinizing the clone in a 1.5 ml Eppendorf cup using Trypsin/EDTA (Invitrogen Cat. # 25300-062) and plating them into a 48 well dish, from where the cells were subsequently expanded by transferring them to increasing culture surface areas (48 well—12 well—60 mm etc.). Whenever cells were transferred to a new plate they were carefully trypsinized. As soon as single clones were selected, the concentration of G418 in the culture medium was reduced to 500 µg/ml.
Molecule `NCCc1c[nH]c2ccc(O)cc12` [Serotonin, 5-HT, Serotonin] returned an EC50 of more than 50 µM.

For `NCCc1c[nH]c2ccccc12` [TRY, tryptamine], the EC50 is 1.99 µM. With `NCCc1ccccc1` [β-PEA, β-phenylethylamine], the EC50 is 0.66 µM.

The experiment is the same for the next values; noted with them: maximal response as percentage of the maximal cAMP levels induced by p-TYR; HEK293 cells stably expressing mTAAR1.
On to `NCC(O)c1ccc(O)cc1` (stereo not drawn) [OCT, octopamine], for which the “Max (96)” value is given as 100 percentage.

Still in this experiment, the particulars now being: read-out: EC50.
In the case of `NCCc1ccc(O)c(O)c1` [Dopamine, dopamine], the EC50 was 11.8 µM.

Turning to `NCCc1c[nH]cn1` [Histamine, histamine], the EC50 is more than 50 µM. Same read-out and setting: with `CNCCc1ccccc1` [N-methyl-β-PEA] the figure was 0.15 µM. Consider `NC[C@H](O)c1ccc(O)c(O)c1` [Norepinephrine, norepinephrine], for which the EC50 is more than 50 µM. The same measure, in the same setting: under `NCC(O)c1ccc(O)cc1` (stereo not drawn) [OCT, octopamine] stands 19.7 µM.
